Measurements: article PMC5927115 (Japanese Journal of Cancer Research : Gann, 2002)
Like-named read-outs stand apart in the source and are kept apart here.

Tests used:
[1] = tested on: receptor for fibroblast growth factor; conditions: ATP-binding site of the catalytic domain; cited from earlier work
EGFR [2] = conditions: cited from earlier work
topoisomerases II = conditions: cited from earlier work
EGFR [3] = molecular target: EGFR (Homo sapiens, UniProt P00533); assay: PTK; format: biochemical
Chain of EGFR (Homo sapiens, UniProt P00533) (P00533 25-1210, looked up): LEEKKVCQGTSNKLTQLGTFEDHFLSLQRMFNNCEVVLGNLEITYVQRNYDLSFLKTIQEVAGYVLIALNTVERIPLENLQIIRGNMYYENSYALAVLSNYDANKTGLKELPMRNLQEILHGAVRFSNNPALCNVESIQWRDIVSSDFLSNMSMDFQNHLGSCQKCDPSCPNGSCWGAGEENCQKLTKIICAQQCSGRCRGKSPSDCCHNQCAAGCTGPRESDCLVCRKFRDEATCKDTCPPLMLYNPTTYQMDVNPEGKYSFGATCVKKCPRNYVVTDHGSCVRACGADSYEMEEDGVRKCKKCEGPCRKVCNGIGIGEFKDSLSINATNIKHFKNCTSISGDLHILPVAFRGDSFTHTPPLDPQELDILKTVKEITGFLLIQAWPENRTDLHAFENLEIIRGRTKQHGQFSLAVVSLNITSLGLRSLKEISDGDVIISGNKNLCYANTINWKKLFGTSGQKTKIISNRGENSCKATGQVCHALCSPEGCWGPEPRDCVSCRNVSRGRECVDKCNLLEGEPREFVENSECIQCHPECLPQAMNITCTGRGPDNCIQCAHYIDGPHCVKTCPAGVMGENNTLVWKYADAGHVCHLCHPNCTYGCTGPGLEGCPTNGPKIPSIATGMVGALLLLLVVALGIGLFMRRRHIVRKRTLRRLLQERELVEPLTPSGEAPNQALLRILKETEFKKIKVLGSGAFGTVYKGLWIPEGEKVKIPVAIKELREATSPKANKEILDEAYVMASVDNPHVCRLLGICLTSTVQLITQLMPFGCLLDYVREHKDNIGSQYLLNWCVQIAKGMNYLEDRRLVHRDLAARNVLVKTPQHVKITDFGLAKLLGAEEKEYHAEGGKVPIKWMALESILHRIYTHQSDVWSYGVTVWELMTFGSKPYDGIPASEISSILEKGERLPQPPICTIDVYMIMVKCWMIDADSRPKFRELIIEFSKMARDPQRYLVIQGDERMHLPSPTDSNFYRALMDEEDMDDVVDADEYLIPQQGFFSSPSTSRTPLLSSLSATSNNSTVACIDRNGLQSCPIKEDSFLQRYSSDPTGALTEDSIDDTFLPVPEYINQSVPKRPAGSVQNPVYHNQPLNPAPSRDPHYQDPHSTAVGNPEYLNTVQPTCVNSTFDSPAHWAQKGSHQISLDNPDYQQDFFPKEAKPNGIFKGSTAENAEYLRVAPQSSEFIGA

PTK = format: biochemical; conditions: SR-3Y1 lysate
[4] = molecular target: eukaryotic elongation factor-2 kinase, and calmodulin-dependent protein kinase III (Rattus norvegicus, UniProt P70531); assay: Simultaneous protein kinase detection in SR-3Y1 lysate: eEF-2K, CaMK III bands; format: biochemical
Chain of eukaryotic elongation factor-2 kinase, and calmodulin-dependent protein kinase III (P70531 2-724): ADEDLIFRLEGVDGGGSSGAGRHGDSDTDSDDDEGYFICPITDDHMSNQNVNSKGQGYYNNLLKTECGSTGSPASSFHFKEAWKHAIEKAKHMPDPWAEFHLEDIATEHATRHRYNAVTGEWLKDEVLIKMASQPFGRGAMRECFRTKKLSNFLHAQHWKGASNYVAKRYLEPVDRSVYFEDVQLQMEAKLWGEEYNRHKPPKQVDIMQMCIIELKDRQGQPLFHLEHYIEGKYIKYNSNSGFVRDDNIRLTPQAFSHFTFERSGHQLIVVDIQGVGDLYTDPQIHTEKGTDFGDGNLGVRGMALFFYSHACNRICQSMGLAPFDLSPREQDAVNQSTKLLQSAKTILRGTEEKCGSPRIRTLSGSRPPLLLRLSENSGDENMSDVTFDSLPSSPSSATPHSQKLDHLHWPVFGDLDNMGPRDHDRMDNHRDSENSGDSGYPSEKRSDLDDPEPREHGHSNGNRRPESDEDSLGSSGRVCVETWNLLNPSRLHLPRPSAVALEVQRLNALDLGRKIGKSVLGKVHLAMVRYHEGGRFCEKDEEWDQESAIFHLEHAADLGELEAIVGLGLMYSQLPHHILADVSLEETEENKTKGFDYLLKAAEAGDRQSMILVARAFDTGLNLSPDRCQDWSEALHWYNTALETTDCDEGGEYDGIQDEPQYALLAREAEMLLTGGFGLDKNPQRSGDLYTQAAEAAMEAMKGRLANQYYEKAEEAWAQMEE

v-Src [5] = molecular target: T1, v-Src (Rous sarcoma virus, UniProt P00524); assay: PTK activity of immunopurified v-Src, 32P incorporation into Raytide; format: biochemical; conditions: for mode of inhibition of v-Src with respect to ATP: various ATP concentrations
T1 sequence (P00524 2-526): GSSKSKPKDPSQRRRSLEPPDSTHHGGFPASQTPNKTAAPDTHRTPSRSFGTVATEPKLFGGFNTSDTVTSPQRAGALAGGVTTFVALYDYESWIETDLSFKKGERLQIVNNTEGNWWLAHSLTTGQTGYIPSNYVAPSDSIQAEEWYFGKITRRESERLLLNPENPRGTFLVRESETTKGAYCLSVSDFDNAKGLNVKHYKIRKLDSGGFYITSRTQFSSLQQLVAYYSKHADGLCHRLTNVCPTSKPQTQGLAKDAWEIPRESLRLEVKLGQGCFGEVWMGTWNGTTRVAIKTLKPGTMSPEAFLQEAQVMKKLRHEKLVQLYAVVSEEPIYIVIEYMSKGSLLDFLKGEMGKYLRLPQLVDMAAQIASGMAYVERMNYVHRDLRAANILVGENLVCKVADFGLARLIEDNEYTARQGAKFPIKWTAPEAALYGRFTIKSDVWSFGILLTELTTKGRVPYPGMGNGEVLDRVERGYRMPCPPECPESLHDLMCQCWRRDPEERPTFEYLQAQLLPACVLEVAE

protein kinase C = assay: Simultaneous protein kinase detection in SR-3Y1 lysate: protein kinase C bands; format: biochemical
sarcoma 180 tumor cells = conditions: mice implanted with sarcoma 180 tumor cells; cited from earlier work
[6] = tested on: 37 lines of cancer cells derived from human solid tumors; assay: Cell death in panel of 37 lines of cancer cells derived from human solid tumors; format: cell-based; conditions: 37 human solid tumor lines, 48 h
KDR/Flk-1 = KDR/Flk-1 (Homo sapiens, UniProt P35968); assay: PTK activity in KDR/Flk-1-NIH3T3 cells; format: cell-based
Chain of KDR/Flk-1 (P35968 20-1356): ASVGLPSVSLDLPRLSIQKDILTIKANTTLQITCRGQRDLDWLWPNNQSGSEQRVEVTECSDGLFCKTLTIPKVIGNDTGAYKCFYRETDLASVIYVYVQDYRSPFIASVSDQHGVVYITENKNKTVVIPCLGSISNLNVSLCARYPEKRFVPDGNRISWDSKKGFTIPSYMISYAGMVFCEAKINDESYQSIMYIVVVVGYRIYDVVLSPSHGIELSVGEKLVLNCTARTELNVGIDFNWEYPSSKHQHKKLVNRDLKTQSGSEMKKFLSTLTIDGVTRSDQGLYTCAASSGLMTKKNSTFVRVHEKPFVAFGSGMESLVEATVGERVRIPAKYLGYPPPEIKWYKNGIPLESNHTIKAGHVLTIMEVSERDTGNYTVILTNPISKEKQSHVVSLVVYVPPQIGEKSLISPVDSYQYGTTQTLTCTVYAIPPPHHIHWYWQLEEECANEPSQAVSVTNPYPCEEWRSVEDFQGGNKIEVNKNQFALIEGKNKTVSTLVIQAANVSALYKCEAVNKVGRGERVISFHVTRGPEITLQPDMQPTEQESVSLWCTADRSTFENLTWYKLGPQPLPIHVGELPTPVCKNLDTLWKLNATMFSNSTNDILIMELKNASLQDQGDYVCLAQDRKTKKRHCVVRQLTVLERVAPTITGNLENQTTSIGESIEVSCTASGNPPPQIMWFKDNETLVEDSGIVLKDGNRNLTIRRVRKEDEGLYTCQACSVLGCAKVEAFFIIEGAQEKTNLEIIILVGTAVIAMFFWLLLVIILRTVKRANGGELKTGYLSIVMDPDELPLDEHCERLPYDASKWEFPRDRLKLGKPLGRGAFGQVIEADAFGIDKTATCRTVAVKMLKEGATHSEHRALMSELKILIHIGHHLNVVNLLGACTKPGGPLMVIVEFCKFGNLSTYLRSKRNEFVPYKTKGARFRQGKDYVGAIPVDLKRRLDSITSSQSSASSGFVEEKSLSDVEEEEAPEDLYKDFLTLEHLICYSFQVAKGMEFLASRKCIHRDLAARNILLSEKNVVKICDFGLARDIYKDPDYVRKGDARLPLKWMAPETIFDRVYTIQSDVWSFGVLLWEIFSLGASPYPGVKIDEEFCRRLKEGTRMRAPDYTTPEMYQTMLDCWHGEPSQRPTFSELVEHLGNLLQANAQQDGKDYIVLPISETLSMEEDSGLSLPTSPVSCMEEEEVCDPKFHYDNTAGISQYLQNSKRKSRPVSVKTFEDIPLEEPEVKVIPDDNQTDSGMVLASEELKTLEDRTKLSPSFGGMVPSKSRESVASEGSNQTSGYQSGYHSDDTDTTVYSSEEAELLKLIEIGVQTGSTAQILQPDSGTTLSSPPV

protein kinase A = assay: Simultaneous protein kinase detection in SR-3Y1 lysate: protein kinase A bands; format: biochemical
topoisomerases I = conditions: cited from earlier work
HL-60 cells = conditions: cited from earlier work
DMS114 = assay: Cell death in human cancer cell line panel; format: cell-based; conditions: DMS114 lung cancer cells, 48 h
Flt-1 = Flt-1 (Homo sapiens, UniProt P17948); assay: PTK activity in Flt-1-overexpressing NIH3T3 cells; format: cell-based
Chain of Flt-1 (P17948 27-1338, species assumed): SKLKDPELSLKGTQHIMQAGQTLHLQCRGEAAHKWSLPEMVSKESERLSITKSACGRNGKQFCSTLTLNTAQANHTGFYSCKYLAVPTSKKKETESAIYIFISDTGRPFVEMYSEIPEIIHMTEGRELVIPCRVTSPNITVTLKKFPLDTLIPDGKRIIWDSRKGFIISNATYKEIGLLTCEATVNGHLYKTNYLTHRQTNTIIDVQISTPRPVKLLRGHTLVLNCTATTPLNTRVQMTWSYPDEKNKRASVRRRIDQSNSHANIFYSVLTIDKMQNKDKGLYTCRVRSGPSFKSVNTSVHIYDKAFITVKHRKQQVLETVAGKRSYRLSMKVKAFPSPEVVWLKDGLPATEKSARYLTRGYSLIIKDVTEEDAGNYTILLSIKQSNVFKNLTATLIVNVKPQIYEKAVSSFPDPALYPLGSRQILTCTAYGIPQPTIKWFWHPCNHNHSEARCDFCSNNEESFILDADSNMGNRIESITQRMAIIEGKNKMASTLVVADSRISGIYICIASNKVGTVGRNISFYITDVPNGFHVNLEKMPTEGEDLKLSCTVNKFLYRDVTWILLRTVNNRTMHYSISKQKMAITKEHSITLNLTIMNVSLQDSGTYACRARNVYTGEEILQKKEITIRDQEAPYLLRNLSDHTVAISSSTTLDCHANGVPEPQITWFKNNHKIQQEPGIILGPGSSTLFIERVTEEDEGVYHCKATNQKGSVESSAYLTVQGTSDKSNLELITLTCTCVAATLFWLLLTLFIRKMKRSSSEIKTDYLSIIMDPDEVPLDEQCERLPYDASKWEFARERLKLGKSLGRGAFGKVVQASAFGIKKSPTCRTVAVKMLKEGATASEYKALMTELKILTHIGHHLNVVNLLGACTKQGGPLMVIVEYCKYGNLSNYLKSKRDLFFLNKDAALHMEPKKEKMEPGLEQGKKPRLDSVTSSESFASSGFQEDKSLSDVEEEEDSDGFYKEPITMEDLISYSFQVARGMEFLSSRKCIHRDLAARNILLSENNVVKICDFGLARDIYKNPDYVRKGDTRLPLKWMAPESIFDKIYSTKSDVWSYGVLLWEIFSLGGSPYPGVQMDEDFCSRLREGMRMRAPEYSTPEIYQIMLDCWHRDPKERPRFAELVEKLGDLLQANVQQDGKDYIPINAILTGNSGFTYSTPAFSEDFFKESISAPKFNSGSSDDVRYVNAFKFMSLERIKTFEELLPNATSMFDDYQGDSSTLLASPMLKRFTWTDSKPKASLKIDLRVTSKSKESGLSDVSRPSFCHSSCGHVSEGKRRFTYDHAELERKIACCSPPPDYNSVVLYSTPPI

SR-3Y1 cells = assay: Cell-growth inhibition of SR-3Y1 cells; format: cell-based; conditions: SR3Y1, read-out: IC50 for cell-growth inhibition
NCI-H522 = assay: Cell death in human cancer cell line panel; format: cell-based; conditions: NCI-H522 lung cancer cells, 48 h
[7] = molecular target: catalytic subunit of protein kinase A (Bos taurus, UniProt P00517); assay: Activity of isolated catalytic subunit of protein kinase A; format: biochemical, bovine; conditions: treatment with as much as 100 M; results not shown
A431 cells = assay: Cell-growth inhibition of carcinoma A431 cells; format: cell-based; conditions: Homo sapiens, A-431, read-out: IC50 for cell-growth inhibition
v-Src [8] = molecular target: T1, v-Src; conditions: cited from earlier work

Cc1[nH]c(/C=C2\C(=O)Nc3ccccc32)c(C)c1CCC(=O)O [SU6668]
mode of inhibition of receptor for fibroblast growth factor with respect to ATP [1]: compete with ATP

CNc1cc2c(Nc3cccc(Br)c3)ncnc2cn1 [PD158780, 4‐[(3‐bromophenyl)amino]‐6‐(methylamino)‐pyrido[3,4‐d]pyrimidine]
mode of inhibition of PTK activity of EGFR with respect to ATP (EGFR [2]): competition with ATP

CC(C)=CC[C@@H](O)C1=CC(=O)c2c(O)ccc(O)c2C1=O [shikonin, reference compound]
inhibition of topoisomerase II activity (topoisomerases II): inhibit | IC50 for EGFR (EGFR [3]; EGFR isolated from A431 cells, estimated from Fig. 4B): impossible to estimate | concentration required for inhibition of the PTK activity of EGFR (EGFR [3]; Fig. 4A): more than 10 M | intensities of bands of proteins phosphorylated by PTK (PTK): decreased markedly | intensities of bands of proteins phosphorylated by eEF-2 kinase and CaMK III [4]: not significantly altered | PTK activity of v-Src remaining in the presence of inhibitor (v-Src [5]; lowest level reached over concentrations tested (Fig. 5)): ≥ 50% | intensities of bands of proteins phosphorylated by protein kinase C (protein kinase C): not significantly altered | antitumor activity (sarcoma 180 tumor cells): exhibits antitumor activity | induction of cell death across the panel [6]: induced cell death in a wide variety of tumor cell lines | inhibition of PTK activity of KDR/Flk-1 (in words) (KDR/Flk-1; KDR/Flk-1-NIH3T3 cells): inhibited significantly | intensities of bands of proteins phosphorylated by protein kinase A (protein kinase A): not significantly altered | inhibition of topoisomerase I activity (topoisomerases I): inhibit

O=C(O)c1cc(N(Cc2ccccc2O)Cc2cc(O)ccc2O)ccc1O [lavendastin-A]
mode of inhibition of PTK activity of EGFR with respect to ATP (EGFR [2]): competition with ATP

CC(C)=CC[C@@H](OC(=O)CC(C)(C)O)C1=CC(=O)c2c(O)ccc(O)c2C1=O [β‐HIVS, β‐Hydroxyisovalerylshikonin]
induction of apoptosis (HL-60 cells): induced apoptosis | IC50 (EGFR [3]): ~700 nM | inhibition of tyrosine kinase activity of EGFR (in words) (EGFR [3]): strongly inhibited | inhibition of tyrosine phosphorylation of EGFR (EGFR [3]): evident | intensities of bands of proteins phosphorylated by PTK (PTK): decreased markedly | induction of cell-death (DMS114): efficiently induced cell-death | IC50 (Flt-1): > 5 µM | IC50 (SR-3Y1 cells): ~1200 nM | intensities of bands of proteins phosphorylated by eEF-2 kinase and CaMK III [4]: not significantly altered | IC50 (v-Src [5]): ~1000 nM | inhibition of tyrosine kinase activity of v-Src (in words) (v-Src [5]): strongly inhibited | mode of inhibition of v-Src with respect to ATP (v-Src [5]; Lineweaver-Burk, 1 and 10 M inhibitor): non‐competitive | mode of inhibition of v-Src with respect to ATP (v-Src [5]; Lineweaver-Burk, 1 and 10 M inhibitor, listed as -HIVS): did not compete with ATP | mode of inhibition of v-Src with respect to substrate Raytide (v-Src [5]; Lineweaver-Burk, various Raytide concentrations, 1 and 10 M inhibitor): competitively inhibited | intensities of bands of proteins phosphorylated by protein kinase C (protein kinase C): not significantly altered | IC50 (KDR/Flk-1): ~2500 nM | concentration needed to inhibit the tyrosine kinase activity of KDR/Flk-1 (KDR/Flk-1; KDR/Flk-1-NIH3T3 cells): more than 1 M | inhibition of PTK activity of KDR/Flk-1 (in words) (KDR/Flk-1; KDR/Flk-1-NIH3T3 cells): weakly inhibited | inhibition of PTK activity of KDR/Flk-1 (in words) (KDR/Flk-1; KDR/Flk-1-NIH3T3 cells, listed as -HIVS): inhibited significantly | intensities of bands of proteins phosphorylated by protein kinase A (protein kinase A): not significantly altered | induction of cell-death (NCI-H522): efficiently induced cell-death | change in activity of catalytic subunit of protein kinase A [7]: practically no change | IC50 (A431 cells): ~11 µM

O=c1c(O)c(-c2ccc(O)c(O)c2)oc2cc(O)cc(O)c12 [quercetin]
mode of inhibition of v-Src with respect to ATP (v-Src [8]): competition with ATP | IC50 (v-Src [8]; read-out: IC50 on v-Src): 3 µM

O=CN/C=C/c1cc(O)ccc1O [erbstatin]
mode of inhibition of PTK activity of EGFR with respect to ATP (EGFR [2]): competition with ATP

O=c1c(-c2ccc(O)cc2)coc2cc(O)cc(O)c12 [genistein]
mode of inhibition of PTK activity of EGFR with respect to ATP (EGFR [2]): competition with ATP
